The assay deals with T1, human Nav1.8/b3 (Homo sapiens, UniProt Q9Y5Y9).
T1 construct: expressed in transfected cells; host or cells: CHO
Description: Compound Profiling Human NaV1.8/β3 Cell Line—SyncroPatch384PE Assay (automated patch clamp, stably transfected CHO cells). It counts as cell-based. To be noted: Nav1.8/b3 CHO cells. In general terms: The patch-clamp technique gives a direct electrical read-out from membranes.

The mark [1] stands for this setting: P1 (IC50, resting state block), P1 measurement, resting state block, holding potential −120 mV, third set of compounds.
Where [2] appears, read: P2 (IC50, inactivated state block), P2 measurement, inactivated state block, inactivation step −35 mV 10 sec, third set of compounds.
The mark [3] stands for this setting: P1 (IC50, resting state block), P1 measurement, resting state block, holding potential −120 mV, first set of compounds.
Setting [4] is: P2 (IC50, inactivated state block), P2 measurement, inactivated state block, inactivation step −35 mV 10 sec, first set of compounds.
The mark [5] stands for this setting: P1 measurement, resting state block, holding potential −120 mV, third set of compounds, read-out: P1 (IC50, resting state block).
[6] abbreviates: P2 measurement, inactivated state block, inactivation step −35 mV 10 sec, third set of compounds, read-out: P2 (IC50, inactivated state block).

The structures appear in SMILES notation. Read-outs that look alike come from different tables or passages of the source.

T1 sequence (Q9Y5Y9 whole entry): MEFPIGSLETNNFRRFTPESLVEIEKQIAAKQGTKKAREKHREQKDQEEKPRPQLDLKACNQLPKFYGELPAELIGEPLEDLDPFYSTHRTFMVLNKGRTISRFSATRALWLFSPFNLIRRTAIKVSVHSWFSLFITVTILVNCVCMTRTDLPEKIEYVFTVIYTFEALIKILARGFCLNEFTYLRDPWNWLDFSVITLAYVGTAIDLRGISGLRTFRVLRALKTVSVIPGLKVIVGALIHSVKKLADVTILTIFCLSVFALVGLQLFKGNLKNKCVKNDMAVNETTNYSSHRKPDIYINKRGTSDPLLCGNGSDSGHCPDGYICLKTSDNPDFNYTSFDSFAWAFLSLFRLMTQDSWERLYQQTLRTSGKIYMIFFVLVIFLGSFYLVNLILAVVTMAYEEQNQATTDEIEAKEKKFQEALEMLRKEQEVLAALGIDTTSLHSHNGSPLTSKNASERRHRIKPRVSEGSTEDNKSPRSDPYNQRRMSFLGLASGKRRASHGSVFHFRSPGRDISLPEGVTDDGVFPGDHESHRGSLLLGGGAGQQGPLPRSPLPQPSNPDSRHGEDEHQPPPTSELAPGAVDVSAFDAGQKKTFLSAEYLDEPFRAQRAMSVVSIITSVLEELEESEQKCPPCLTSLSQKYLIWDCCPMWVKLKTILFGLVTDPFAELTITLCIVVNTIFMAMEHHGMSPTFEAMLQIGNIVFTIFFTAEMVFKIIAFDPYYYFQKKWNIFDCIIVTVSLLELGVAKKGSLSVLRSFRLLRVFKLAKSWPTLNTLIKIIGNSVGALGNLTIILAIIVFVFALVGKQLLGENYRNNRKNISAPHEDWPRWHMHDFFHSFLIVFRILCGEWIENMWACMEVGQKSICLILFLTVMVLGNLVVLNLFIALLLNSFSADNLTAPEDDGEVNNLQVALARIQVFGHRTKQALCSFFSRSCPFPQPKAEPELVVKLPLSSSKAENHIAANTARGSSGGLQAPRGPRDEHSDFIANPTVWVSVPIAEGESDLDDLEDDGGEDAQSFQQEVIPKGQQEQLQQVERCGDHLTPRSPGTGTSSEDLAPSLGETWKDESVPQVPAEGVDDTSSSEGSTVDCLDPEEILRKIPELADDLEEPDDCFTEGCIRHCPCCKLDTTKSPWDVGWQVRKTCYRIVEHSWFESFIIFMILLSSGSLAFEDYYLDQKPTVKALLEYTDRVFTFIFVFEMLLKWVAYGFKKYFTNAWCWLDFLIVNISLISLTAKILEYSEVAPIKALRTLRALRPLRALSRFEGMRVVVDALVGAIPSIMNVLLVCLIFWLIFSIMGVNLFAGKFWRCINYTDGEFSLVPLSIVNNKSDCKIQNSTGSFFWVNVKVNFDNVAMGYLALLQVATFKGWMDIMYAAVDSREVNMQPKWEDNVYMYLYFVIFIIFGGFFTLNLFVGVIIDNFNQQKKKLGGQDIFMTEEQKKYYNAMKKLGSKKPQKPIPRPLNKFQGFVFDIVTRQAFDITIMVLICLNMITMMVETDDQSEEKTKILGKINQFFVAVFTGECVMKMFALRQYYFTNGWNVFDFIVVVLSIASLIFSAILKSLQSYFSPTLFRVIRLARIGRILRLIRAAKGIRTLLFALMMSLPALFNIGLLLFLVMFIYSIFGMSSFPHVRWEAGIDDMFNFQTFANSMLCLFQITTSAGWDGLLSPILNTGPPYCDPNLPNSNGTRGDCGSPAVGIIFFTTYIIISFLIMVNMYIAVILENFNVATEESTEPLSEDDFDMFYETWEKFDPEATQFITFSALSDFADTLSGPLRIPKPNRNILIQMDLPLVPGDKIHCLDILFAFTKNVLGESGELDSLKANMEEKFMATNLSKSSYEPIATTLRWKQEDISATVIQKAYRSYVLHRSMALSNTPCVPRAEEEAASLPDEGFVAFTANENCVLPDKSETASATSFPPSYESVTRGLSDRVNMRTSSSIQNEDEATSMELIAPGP
T1 sequence (Q9NY72 23-215 partner): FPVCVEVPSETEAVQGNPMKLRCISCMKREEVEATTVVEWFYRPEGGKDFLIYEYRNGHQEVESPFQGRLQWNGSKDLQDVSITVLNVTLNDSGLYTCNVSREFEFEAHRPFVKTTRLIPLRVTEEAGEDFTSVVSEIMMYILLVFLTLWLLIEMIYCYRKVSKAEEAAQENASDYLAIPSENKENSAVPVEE

As for `Cc1nc(F)ccc1Oc1ncc(C(F)F)c(C)c1C(=O)Nc1ccnc(S(C)(=N)=O)c1` (stereo not shown) [Example 48C, 5-(difluoromethyl)-2-((6-fluoro-2-methylpyridin-3-yl)oxy)-4-methyl-N-(2-(S-methylsulfonimidoyl)pyridin-4-yl)nicotinamide], the IC50 (in general, the point on the concentration scale where inhibition reaches its midpoint) reads like this: under setting [1], above 200 nM; under setting [2], above 200 nM.
Regarding `Cc1nc(F)ccc1Oc1cc(C(F)(F)F)c(Cl)cc1C(=O)Nc1ccc([S@](C)(=N)=O)cc1` [Example 49A], the IC50 reads like this: under setting [3], 50 to 100 nM; under setting [4], 50 to 100 nM.
Consider `C[S@@](=N)(=O)c1cccc(NC(=O)c2c(Oc3ccc(OC(F)(F)F)cc3)cc(C(F)(F)F)c(Cl)c2F)c1` [Example 50A], for which the IC50 runs as follows: under setting [3], below 5 nM; under setting [4], below 5 nM.
Take `Cc1nc(F)ccc1Oc1cc(C2CC2)c(C(F)(F)F)cc1C(=O)Nc1ccc(F)c([S@@](C)(=N)=O)c1` [Example 51A]: the IC50 by setting is: under setting [3], below 5 nM; under setting [4], below 5 nM.
In the case of `Cc1nc(F)ccc1Oc1cc(C2CC2)c(C(F)(F)F)cc1C(=O)Nc1ccc(F)c([S@](C)(=N)=O)c1` [Example 52A], the IC50 is below 5 nM under setting [3] and below 5 nM under setting [4].
Take `Cc1nc(F)ccc1Oc1cc(C(F)(F)F)c(Cl)c(C)c1C(=O)NC12CC(C(N)=O)(C1)C2` [Example 53A]: the IC50 is, setting by setting: under setting [3], above 200 nM; under setting [4], above 200 nM.
Take `Cc1nc(F)ccc1Oc1cc(C(F)(F)F)c(Cl)cc1C(=O)Nc1ccc(F)c(S(C)(=O)=O)c1` [Example 54A]: the IC50 reads like this: under setting [3], below 5 nM; under setting [4], below 5 nM.
Turning to `Cc1nc(F)ccc1Oc1cc(C(F)(F)F)c(Cl)cc1C(=O)Nc1ccc(F)c([S@+](C)[O-])c1` [Example 55A], the IC50 was below 5 nM under setting [3] and below 5 nM under setting [4].
Consider `Cc1nc(F)ccc1Oc1cc(C(F)(F)F)c(Cl)cc1C(=O)Nc1ccc(F)c([S@@+](C)[O-])c1` [Example 56A], for which the IC50 by setting is: under setting [3], below 5 nM; under setting [4], below 5 nM.
`Cc1nc(F)ccc1Oc1cc(C2CC2)c(C(F)(F)F)cc1C(=O)Nc1ccnc([S@@](C)(=N)=O)c1` [Example 57A]: the IC50 under setting [3] was below 5 nM and the IC50 under setting [4] was in the range of 5 to 50 nM.
For `Cc1nc(F)ccc1Oc1cc(C2CC2)c(C(F)(F)F)cc1C(=O)Nc1ccnc([S@](C)(=N)=O)c1` [Example 58A] the same measures were below 5 nM and below 5 nM.
`Cc1nc(F)ccc1Oc1cc(C2CC2)c(C(F)(F)F)cc1C(=O)Nc1cccc([S@@](C)(=N)=O)c1` [Example 59A]: the IC50 runs as follows: under setting [3], below 5 nM; under setting [4], below 5 nM.
Molecule `Cc1nc(F)ccc1Oc1cc(C(F)(F)F)c(Cl)c(C)c1C(=O)Nc1ccnc([S@@](C)(=N)=O)c1` [Example 60A] returned a concentration for half-maximal inhibition (IC50) under setting [3] below 5 nM and an IC50 under setting [4] below 5 nM.
Consider `Cc1nc(F)ccc1Oc1cc(C(F)(F)F)c(Cl)c(C)c1C(=O)Nc1cccc(C(N)=O)c1` [Example 61A], for which the IC50 is below 5 nM under setting [3] and below 5 nM under setting [4].
For the molecule `Cc1nc(F)ccc1Oc1cc(C(F)(F)F)c(Cl)c(C)c1C(=O)Nc1ccnc(C(N)=O)c1` [Example 62A], the IC50 was below 5 nM under setting [3] and below 5 nM under setting [4].
Consider `Cc1nc(F)ccc1Oc1cc(C(F)(F)F)c(Cl)cc1C(=O)NC12CC(C(N)=O)(C1)C2` [Example 63A], for which the IC50 was above 200 nM under setting [3] and above 200 nM under setting [4].
As to `Cc1nc(F)ccc1Oc1cc(C(F)(F)F)c(Cl)cc1C(=O)Nc1ccc(C(N)=O)nc1` [Example 64A], the IC50 under setting [3] fell in the range of 5 to 50 nM and the IC50 under setting [4] was in the range of 5 to 50 nM.
On to `Cc1nc(F)ccc1Oc1cc(C(F)(F)F)c(Cl)c(C)c1C(=O)Nc1ccnc([S@](C)(=N)=O)c1` [Example 65A], for which the IC50 under setting [3] was below 5 nM and the 50% inhibitory concentration (IC50) under setting [4] was below 5 nM.
In the case of `Cc1nc(F)ccc1Oc1cc(C(F)(F)F)c(Cl)c(C)c1C(=O)Nc1cccc([S@@](C)(=N)=O)c1` [Example 66A], the IC50 is below 5 nM under setting [3] and below 5 nM under setting [4].
Regarding `Cc1nc(F)ccc1Oc1cc(C2CC2)c(C(F)(F)F)cc1C(=O)Nc1cccc([S@](C)(=N)=O)c1` [Example 67A], the IC50 is, setting by setting: under setting [3], below 5 nM; under setting [4], below 5 nM.
With `Cc1nc(F)ccc1Oc1cc(C(F)(F)F)c(Cl)cc1C(=O)Nc1ccc(C(N)=O)cc1` [Example 68A], the IC50 is, setting by setting: under setting [3], 5 to 50 nM; under setting [4], below 5 nM.
Taken in the same sequence, the figures for `Cc1nc(F)ccc1Oc1cc(C(F)(F)F)c(Cl)cc1C(=O)Nc1ccc(F)c([S+](C)[O-])c1` (stereo not shown) [Example 69A] were below 5 nM and below 5 nM.
On to `Cc1nc(F)ccc1Oc1cc(C(F)(F)F)c(Cl)cc1C(=O)Nc1ccc(F)c([S@@](C)(=N)=O)c1` [Example 70A], for which the IC50 reads like this: under setting [3], below 5 nM; under setting [4], below 5 nM.
Molecule `Cc1nc(F)ccc1Oc1cc(C(F)(F)F)c(Cl)cc1C(=O)Nc1ccc(F)c([S@](C)(=N)=O)c1` [Example 71A] displayed an IC50 under setting [3] below 5 nM and an IC50 under setting [4] below 5 nM.
Consider `Cc1nc(F)ccc1Oc1cc(C(F)(F)F)c(Cl)cc1C(=O)Nc1ccnc(C(N)=O)c1` [Example 72A], for which the half-maximal inhibitory concentration (IC50) was below 5 nM under setting [3] and below 5 nM under setting [4].
Consider `Cc1nc(F)ccc1Oc1cc(C(F)(F)F)c(Cl)cc1C(=O)Nc1cccc(C(N)=O)c1` [Example 73A], for which the IC50 by setting is: under setting [3], below 5 nM; under setting [4], below 5 nM.
For the molecule `Cc1nc(F)ccc1Oc1ncc(C(F)(F)F)c(C)c1C(=O)Nc1cccc([S@@](C)(=O)=NCC(C)(C)N)c1` [Example 90C], the IC50 is, setting by setting: under setting [1], below 5 nM; under setting [2], below 5 nM.
`Cc1nc(F)ccc1Oc1ncc(C(F)(F)F)c(C)c1C(=O)Nc1cccc([S@@](C)(=O)=NCCN(C)C)c1` [Example 91C] showed an IC50 under setting [1] below 5 nM and an IC50 under setting [2] below 5 nM.
Regarding `Cc1nc(F)ccc1Oc1ncc(C(F)(F)F)c(C)c1C(=O)Nc1cccc(S(C)(=O)=NCC2(N)CC2)c1` (stereo not shown) [Example 92C], the half-inhibitory concentration (IC50) reads like this: under setting [5], below 5 nM; under setting [6], below 5 nM.
In the case of `Cc1nc(F)ccc1Oc1nc2ccccc2cc1C(=O)Nc1ccnc([S@](C)(=N)=O)c1` [Example 93C], the 50% inhibitory concentration (IC50) is, setting by setting: under setting [1], 100 to 200 nM; under setting [2], 100 to 200 nM.
With `Cc1nc(F)ccc1Oc1nc(C(F)(F)F)c(Cl)c(C)c1C(=O)Nc1ccc(F)c([S@@](C)(=N)=O)c1` [Example 94C], the IC50 under setting [1] is 5 to 50 nM and the 50% inhibitory concentration (IC50) under setting [2] was 5 to 50 nM.
With `Cc1nc(F)ccc1Oc1nc(C(F)(F)F)c(Cl)c(C)c1C(=O)Nc1ccc(F)c([S@](C)(=N)=O)c1` [Example 95C], the IC50 was below 5 nM under setting [1] and below 5 nM under setting [2].
`Cc1nc(F)ccc1Oc1nc(C(F)(F)F)c(Br)c(C)c1C(=O)Nc1cccc([S@@](C)(=O)=NCCN)c1` [Example 96C] returned a concentration for half-maximal inhibition (IC50) under setting [1] below 5 nM and an IC50 under setting [2] below 5 nM.
As for `Cc1nc(F)ccc1Oc1nc2ccccc2cc1C(=O)Nc1cccc([S@](C)(=N)=O)c1` [Example 97C], the IC50 was in the range of 50 to 100 nM under setting [1] and 50 to 100 nM under setting [2].
On to `Cc1nc(F)ccc1Oc1ncc(C2CCC2)c(C)c1C(=O)Nc1ccnc([S@](C)(=N)=O)c1` [Example 98C], for which the IC50 is, setting by setting: under setting [1], 5 to 50 nM; under setting [2], 5 to 50 nM.
For the molecule `Cc1nc(F)ccc1Oc1ncc(C2CCC2)c(C)c1C(=O)Nc1cccc([S@](C)(=N)=O)c1` [Example 99C], the IC50 reads like this: under setting [1], 5 to 50 nM; under setting [2], 5 to 50 nM.
`Cc1nc(F)ccc1Oc1nc(C(F)(F)F)c(Cl)c(C)c1C(=O)Nc1ccnc([S@](C)(=N)=O)c1` [Example 100C]: the IC50 under setting [1] lay in the range of 5 to 50 nM and the half-inhibitory concentration (IC50) under setting [2] lay within 5 to 50 nM.
With `Cc1nc(F)ccc1Oc1ncc(C(F)(F)F)c(C)c1C(=O)Nc1ccc(F)c(S(C)(=O)=O)c1` [Example 101C], the IC50 lay within 5 to 50 nM under setting [5] and 5 to 50 nM under setting [6].
The molecule `Cc1nc(F)ccc1Oc1ncc(C(F)(F)F)c(C)c1C(=O)Nc1ccc(F)c([S+](C)[O-])c1` (stereo not shown) [Example 102C] yielded an IC50 under setting [1] of 5 to 50 nM and an IC50 under setting [2] of 5 to 50 nM.
For `CCCc1cnc(Oc2ccc(F)nc2C)c(C(=O)Nc2cccc([S@](C)(=N)=O)c2)c1C` [Example 103C], the IC50 is, setting by setting: under setting [1], 50 to 100 nM; under setting [2], 50 to 100 nM.
With `Cc1nc(F)ccc1Oc1ncc(C(C)C)c(C)c1C(=O)Nc1cccc([S@](C)(=N)=O)c1` [Example 104C], the IC50 runs as follows: under setting [1], 50 to 100 nM; under setting [2], 50 to 100 nM.
Regarding `Cc1nc(F)ccc1Oc1nc(C2CC2)c(C(F)(F)F)c(C)c1C(=O)Nc1ccnc([S@@](C)(=N)=O)c1` [Example 105C], the IC50 was below 5 nM under setting [1] and below 5 nM under setting [2].
On to `Cc1nc(F)ccc1Oc1nc(C2CC2)c(C(F)(F)F)c(C)c1C(=O)Nc1ccnc([S@](C)(=N)=O)c1` [Example 106C], for which the IC50 under setting [1] was below 5 nM and the IC50 under setting [2] was below 5 nM.
On to `Cc1nc(F)ccc1Oc1nc(C2CC2)c(C(F)(F)F)c(C)c1C(=O)Nc1cccc([S@@](C)(=N)=O)c1` [Example 107C], for which the IC50 reads like this: under setting [5], below 5 nM; under setting [6], below 5 nM.
As to `Cc1nc(F)ccc1Oc1nc(C2CC2)c(C(F)(F)F)c(C)c1C(=O)Nc1cccc([S@](C)(=N)=O)c1` [Example 108C], the IC50 is below 5 nM (read-out: P1 (IC50, resting state block), P1 measurement, resting state block, holding potential −120 mV, third set of compounds) and below 5 nM (read-out: P2 (IC50, inactivated state block), P2 measurement, inactivated state block, inactivation step −35 mV 10 sec, third set of compounds).
On to `CNCCN=[S@](C)(=O)c1cccc(NC(=O)c2c(Oc3ccc(F)nc3C)ncc(C(F)(F)F)c2C)c1` [Example 109C], for which the 50% inhibitory concentration (IC50) under setting [5] was below 5 nM and the IC50 under setting [6] is below 5 nM.
Regarding `Cc1nc(F)ccc1Oc1cnc(C(F)(F)F)c(F)c1C(=O)Nc1cccc([S@](C)(=N)=O)c1` [Example 110C], the IC50 by setting is: under setting [1], 5 to 50 nM; under setting [2], 5 to 50 nM.

The values are drawn from US20260356804A1, “SODIUM CHANNEL BLOCKING COMPOUNDS, DERIVATIVES THEREOF, AND METHODS OF THEIR USE” (LATIGO BIOTHERAPEUTICS, INC., priority 2022, published 2026).
